This note sets out measurements from patent publication US20240376097A1, “BCL-2 Inhibitor” (BeiGene Ltd., priority 2020, published 2024).

The structures appear in SMILES notation. Like-named read-outs stand apart in the source and are kept apart here.

Experiment [1] deals with Recombinant human Bcl-2 protein (Homo sapiens (Human), UniProt P10415). Nature of the experiment: Bcl-2 TR-FRET Assay. It is filed as binding. Summed up: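 0.05 nM Bcl-2 pre-incubated 0.5 h at room temperature with 10-point compound dilutions (top final 1, 0.1, 0.02 or 0.01 uM) in 20 mM potassium phosphate pH 7.5, 50 mM NaCl, 1 mM EDTA, 0.05% Tween-20, 0.01% BSA; FITC-Bak peptide (0.5 nM) and anti-6His Tb cryptate added, 1 h. IC50 from four-parameter logistic fit.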

The target of experiment [2] is recombinant human Bcl-2-G101V protein (Homo sapiens (Human), UniProt P10415, G101V). Put plainly: Bcl-2-G101V TR-FRET Assay. Format: binding. The conditions noted are these: Bcl-2 G101V mutant, TR-FRET; read-out: Biochemical assay (IC50, nM) Bcl-2 G101V. Summed up:
(§1)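 Percent inhibition of the Bcl-2-G101V–ligand interaction was computed from the 490 nm to 520 nm emission ratio after 337 nm excitation, over increasing compound concentrations; a four-parameter logistic fit gave IC50.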
For orientation: Time-resolved FRET reads energy transfer from a long-lived donor to a nearby acceptor.

For experiment [3], the system named is recombinant human Bcl-2-G101V protein. Nature of the experiment: Bcl-2-G101V TR-FRET Assay. The note with it: for ratio of IC50 of Bcl-2 G101V/Bcl-2 wt, compared with Example F132b in WO2019210828 and ABT-199 (venetoclax): comparison in words; for Ratio of Bcl-2 G101V/WT: ratio of biochemical IC50 Bcl-2 G101V / Bcl-2 WT. Format: binding. Summed up:
as §1

The test system of experiment [4] is RS4;11 (BCL-2 dependent acute lymphoblastic leukemia cell line). Put plainly: RS4;11 Cell Proliferation Assay. It is filed as cell-based. The conditions noted are these: Homo sapiens, RS4-11, RS4;11 cells, read-out: Cellular proliferation assay (IC50, nM) RS4. The method in brief: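 RS4;11 cells, 50,000 per well in RPMI-1640 with 10% FBS, treated 48 h at 37 °C with a 10-point dilution series topping at 1 μM. Viability read by CellTiter-Glo ATP luminescence; mean IC50 reported.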

Experiment [5] relates to BCL-2 G101V knock-in cell line H96 (derive from RS4;11). Put plainly: Bcl 2-G101V Knock-In RS4;11 Cell Proliferation Assay. It is filed as cell-based. The note with it: Homo sapiens, RS4;11 Bcl-2 G101V knock-in clone H96, 48 hrs, CellTiter-GLO, read-out: Cellular proliferation assay (IC50, nM) RS4. The method in brief: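 H96, a CRISPR-generated RS4;11 clone carrying BCL2-G101V knock-in (WES/RNA-seq validated), seeded 50,000 per well and exposed 48 h at 37 °C to 10-point dilutions topping at 1 or 10 μM. Viability by CellTiter-Glo luminescence; mean IC50.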
A general note: ATP-based viability assays read luminescence as a measure of living cells.

Experiment [6] deals with recombinant human Bcl-2 D103Y protein (Homo sapiens (Human), UniProt P10415, D103Y). Put plainly: Bcl-2-D103Y Biochemical Assay (TR-FRET). Format: binding. The conditions noted are these: for IC50: TR-FRET, FITC labeled Bak peptide; for ratio of Bcl-2 D103Y/Bcl-2 wt, compared with F91b in WO2019210828: comparison in words; for Ratio of Bcl-2 D103Y/Bcl-2 WT: ratio of IC50. Summed up: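 Recombinant human Bcl-2 D103Y binding to its ligand measured by TR-FRET (ex 337 nm, em 490/520 nm) with increasing compound concentrations. Percent inhibition from the 490/520 nm ratio; IC50 from four-parameter logistic fit.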

The mark [7] stands for this setting: Bcl-2 wild type, TR-FRET, read-out: Biochemical assay (IC50, nM) Bcl-2 WT.
Setting [8] is: wild type Bcl-2, unit inferred, read-out: Bcl-2 WT.

`CC(C)c1ccccc1C1CN(CC2CCCCC2)CCN1C1CC2(CCN(c3ccc(C(=O)NS(=O)(=O)c4ccc(NC[C@H]5CC[C@](C)(O)CC5)c([N+](=O)[O-])c4)c(Oc4cnc5[nH]ccc5c4)c3)CC2)C1` (stereo partly drawn) [Example 16, 2-((1H-pyrrolo[2,3-b]pyridin-5-yl)oxy)-4-(2-(4-(cyclohexylmethyl)-2-(2-isopropylphenyl)piperazin-1-yl)-7-azaspiro[3.5]nonan-7-yl)-N-((4-((((1r,4r)-4-hydroxy-4-methylcyclohexyl)methyl)amino)-3-nitrophenyl)sulfonyl)benzamide]: the IC50 amounted to 0.26 nM in experiment [1] (setting [7]); 0.26 nM in experiment [1] (setting [8]); 1.7 nM in experiment [2]; 0.81 nM in experiment [4]; 8.6 nM in experiment [5]; 0.63 nM in experiment [6]. Also, the “ratio of IC50 of Bcl-2 G101V/Bcl-2 wt, compared with Example F132b in WO2019210828 and ABT-199 (venetoclax)” value in experiment [3] is “much lower”. In experiment [3], the “Ratio of Bcl-2 G101V/WT” value was 6.5. Further, the “ratio of Bcl-2 D103Y/Bcl-2 wt, compared with F91b in WO2019210828” value in experiment [6] was “significantly lower”. In addition, in experiment [6], the “Ratio of Bcl-2 D103Y/Bcl-2 WT” value is given as 2.5.
`CC(C)c1ccccc1C1CN(CC23CC(C2)C3)CCN1C1CC2(CCN(c3ccc(C(=O)NS(=O)(=O)c4ccc(NC[C@H]5CC[C@](C)(O)CC5)c([N+](=O)[O-])c4)c(Oc4cnc5[nH]ccc5c4)c3)CC2)C1` (stereo partly drawn) [Example 18, 2-((1H-pyrrolo[2,3-b]pyridin-5-yl)oxy)-4-(2-(4-(bicyclo[1.1.1]pentan-1-ylmethyl)-2-(2-isopropylphenyl)piperazin-1-yl)-7-azaspiro[3.5]nonan-7-yl)-N-((4-((((1r,4r)-4-hydroxy-4-methylcyclohexyl)methyl)amino)-3-nitrophenyl)sulfonyl)benzamide]: the IC50 in experiment [1] (setting [7]) turned out to be 0.079 nM; in experiment [1] (setting [8]), 0.079 nM; in experiment [2], 0.71 nM; in experiment [4] it was 0.61 nM; in experiment [5], 4.9 nM; in experiment [6], 0.43 nM. Also, the “Ratio of Bcl-2 G101V/WT” value in experiment [3] is 9.0. The “Ratio of Bcl-2 D103Y/Bcl-2 WT” value in experiment [6] came out at 5.4.
For `COc1ccc(CN2CCN(C3CC4(CCN(c5ccc(C(=O)NS(=O)(=O)c6ccc(NC[C@H]7CC[C@](C)(O)CC7)c([N+](=O)[O-])c6)c(Oc6cnc7[nH]ccc7c6)c5)CC4)C3)[C@@H](c3ccccc3C(C)C)C2)cc1` [Example 19b, 2-((1H-pyrrolo[2,3-b]pyridin-5-yl)oxy)-N-((4-((((1r,4r)-4-hydroxy-4-methylcyclohexyl)methyl)amino)-3-nitrophenyl)sulfonyl)-4-(2-((S)-2-(2-isopropylphenyl)-4-(4-methoxybenzyl)piperazin-1-yl)-7-azaspiro[3.5]nonan-7-yl)benzamide], the IC50 was determined as 0.16 nM in experiment [1] (setting [7]); 0.16 nM in experiment [1] (setting [8]); 10 nM in experiment [2]; 6.8 nM in experiment [4]; 44 nM in experiment [5]; 16 nM in experiment [6]. In addition, the “Ratio of Bcl-2 G101V/WT” value in experiment [3] is given as 62.5. In addition, in experiment [6], the “Ratio of Bcl-2 D103Y/Bcl-2 WT” value worked out at 100.
As to `CC(C)c1ccccc1C1CN(Cc2ccoc2)CCN1C1CC2(CCN(c3ccc(C(=O)NS(=O)(=O)c4ccc(NC[C@H]5CC[C@](C)(O)CC5)c([N+](=O)[O-])c4)c(Oc4cnc5[nH]ccc5c4)c3)CC2)C1` (stereo partly drawn) [Example 20, 2-((1H-pyrrolo[2,3-b]pyridin-5-yl)oxy)-4-(2-(4-(furan-3-ylmethyl)-2-(2-isopropylphenyl)piperazin-1-yl)-7-azaspiro[3.5]nonan-7-yl)-N-((4-((((1r,4r)-4-hydroxy-4-methylcyclohexyl)methyl)amino)-3-nitrophenyl)sulfonyl)benzamide], the IC50 in experiment [1] (setting [7]) was determined as 0.053 nM; in experiment [1] (setting [8]), 0.053 nM; in experiment [2], 0.58 nM; in experiment [4], 0.62 nM; in experiment [5], 5.91 nM; in experiment [6], 0.25 nM. In addition, the “Ratio of Bcl-2 G101V/WT” value in experiment [3] is 10.9. Also, the “Ratio of Bcl-2 D103Y/Bcl-2 WT” value in experiment [6] came out at 4.6.
Turning to `CC(C)c1ccccc1C1CN(Cc2cnn(C)c2)CCN1C1CC2(CCN(c3ccc(C(=O)NS(=O)(=O)c4ccc(NC[C@H]5CC[C@](C)(O)CC5)c([N+](=O)[O-])c4)c(Oc4cnc5[nH]ccc5c4)c3)CC2)C1` (stereo partly drawn) [Example 22, 2-((1H-pyrrolo[2,3-b]pyridin-5-yl)oxy)-N-((4-((((1r,4r)-4-hydroxy-4-methylcyclohexyl)methyl)amino)-3-nitrophenyl)sulfonyl)-4-(2-(2-(2-isopropylphenyl)4-((1-methyl-1H-pyrazol-4-yl)methyl)piperazin-1-yl)-7-azaspiro[3.5]nonan-7-yl) benzamide], the IC50 in experiment [1] (setting [7]) stood at 0.013 nM; in experiment [1] (setting [8]) it was 0.013 nM; in experiment [2], 0.079 nM; in experiment [4] it was 0.46 nM; in experiment [5], 2.6 nM; in experiment [6], 0.12 nM. For the same compound, the “Ratio of Bcl-2 G101V/WT” value in experiment [3] is 6.1. For the same compound, in experiment [6], the “Ratio of Bcl-2 D103Y/Bcl-2 WT” value stood at 9.2.
For the compound `CC(C)c1ccccc1C1CN(Cc2ccccc2)CCN1C1CC2(CCN(c3ccc(C(=O)NS(=O)(=O)c4ccc(NC[C@H]5CC[C@](C)(O)CC5)c([N+](=O)[O-])c4)c(Oc4cnc5[nH]ccc5c4)c3)CC2)C1` (stereo partly drawn) [Example 23, 2-((1H-pyrrolo[2,3-b]pyridin-5-yl)oxy)-4-(2-(4-benzyl-2-(2-isopropylphenyl)piperazin-1-yl)-7-azaspiro[3.5]nonan-7-yl)-N-((4-((((1r,4r)-4-hydroxy-4-methylcyclohexyl)methyl)amino)-3-nitrophenyl)sulfonyl)benzamide], the IC50 was 0.45 nM in experiment [1] (setting [7]); 0.13 nM in experiment [1] (setting [8]); 2.1 nM in experiment [2]; 0.39 nM in experiment [4]; 2.66 nM in experiment [5]; 0.26 nM in experiment [6]. For the same compound, the “ratio of IC50 of Bcl-2 G101V/Bcl-2 wt, compared with Example F132b in WO2019210828 and ABT-199 (venetoclax)” value in experiment [3] is recorded as “much lower”. The “Ratio of Bcl-2 G101V/WT” value in experiment [3] is 4.7. In addition, the “ratio of Bcl-2 D103Y/Bcl-2 wt, compared with F91b in WO2019210828” value in experiment [6] was “significantly lower”. In addition, the “Ratio of Bcl-2 D103Y/Bcl-2 WT” value in experiment [6] worked out at 2.
As to `CC(C)c1ccccc1C1CN(CCc2ccccc2)CCN1C1CC2(CCN(c3ccc(C(=O)NS(=O)(=O)c4ccc(NC[C@H]5CC[C@](C)(O)CC5)c([N+](=O)[O-])c4)c(Oc4cnc5[nH]ccc5c4)c3)CC2)C1` (stereo partly drawn) [Example 26, 2-((1H-pyrrolo[2,3-b]pyridin-5-yl)oxy)-N-((4-((((1r,4r)-4-hydroxy-4-methylcyclohexyl)methyl)amino)-3-nitrophenyl)sulfonyl)-4-(2-(2-(2-isopropylphenyl)-4-phenethylpiperazin-1-yl)-7-azaspiro[3.5]nonan-7-yl)benzamide], the IC50 in experiment [1] (setting [7]) was found to be 0.11 nM; in experiment [1] (setting [8]) it was 0.11 nM; in experiment [2] it was 1.4 nM; in experiment [4], 0.85 nM; in experiment [5], 8.48 nM; in experiment [6] it was 0.51 nM. Further, the “Ratio of Bcl-2 G101V/WT” value in experiment [3] came to 12.7. Also, in experiment [6], the “Ratio of Bcl-2 D103Y/Bcl-2 WT” value was found to be 4.7.
